What was measured:
Rat NHE3 = biological target: T1, Rat NHE3 (Rattus norvegicus, UniProt P26433); experiment: Cell-based NHE3 activity under prompt conditions (OK cells, BCECF pH recovery), rat NHE3; conditions: prompt conditions
T1 construct: expressed in transfected cells; host or cells: Opossum kidney (OK) cells (ATCC), electroporation
In short: (§1)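 OK cells electroporated with rat or human NHE3 gene, loaded 30 min at room temperature with 5 μM BCECF-AM in NH4Cl-HEPES pH 7.4.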

Human NHE3 = biological target: T2, Human NHE3 (Homo sapiens, UniProt P48764); experiment: Cell-based NHE3 activity under prompt conditions (OK cells, BCECF pH recovery), human NHE3; conditions: prompt conditions
T2 construct: expressed in transfected cells; host or cells: Opossum kidney (OK) cells (ATCC), electroporation
T2 sequence (P48764 26-834): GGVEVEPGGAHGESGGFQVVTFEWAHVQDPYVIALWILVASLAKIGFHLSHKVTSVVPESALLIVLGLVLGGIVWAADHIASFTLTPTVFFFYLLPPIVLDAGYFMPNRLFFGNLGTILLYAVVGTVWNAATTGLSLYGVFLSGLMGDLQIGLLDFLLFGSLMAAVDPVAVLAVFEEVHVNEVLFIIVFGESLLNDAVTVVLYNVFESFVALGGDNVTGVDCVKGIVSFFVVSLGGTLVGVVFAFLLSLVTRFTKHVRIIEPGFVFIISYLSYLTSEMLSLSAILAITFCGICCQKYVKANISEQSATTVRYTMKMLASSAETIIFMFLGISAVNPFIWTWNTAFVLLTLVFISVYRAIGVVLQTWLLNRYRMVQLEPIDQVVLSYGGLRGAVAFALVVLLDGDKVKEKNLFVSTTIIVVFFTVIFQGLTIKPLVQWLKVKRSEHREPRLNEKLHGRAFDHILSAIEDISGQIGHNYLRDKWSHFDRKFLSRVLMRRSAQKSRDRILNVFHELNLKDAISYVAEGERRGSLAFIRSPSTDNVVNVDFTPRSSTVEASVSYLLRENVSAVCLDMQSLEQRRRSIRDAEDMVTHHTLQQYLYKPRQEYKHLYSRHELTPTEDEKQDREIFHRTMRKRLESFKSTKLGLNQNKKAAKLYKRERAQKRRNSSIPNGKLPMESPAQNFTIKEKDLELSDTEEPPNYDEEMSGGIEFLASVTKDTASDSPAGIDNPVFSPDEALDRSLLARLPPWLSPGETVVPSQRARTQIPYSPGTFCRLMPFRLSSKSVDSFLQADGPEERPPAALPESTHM
In short: as §1

[1] = test system: absorption of sodium from the intestinal lumen; experiment: Inhibition of intestinal sodium absorption: urinary sodium (uNa) 16 h after single oral dose in rats; assay type: in vivo, rat; conditions: oral gavage, 16 h post-dose
In short: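 Eight-week-old Sprague-Dawley rats (n=6) given single oral gavage of compound or water vehicle in the late afternoon, then kept in metabolic cages with chow and water ad libitum. Urine collected over 16 h; sodium quantified by ion chromatography and expressed as % of vehicle mean, compared by one-way ANOVA with Dunnett's test.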

[2] = test system: absorption of sodium from the intestinal lumen; experiment: Fecal form score (FFS) 16 h after oral dose in rats; assay type: in vivo, rat; conditions: oral gavage, 16 h post-dose, scale 1-5
In short: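 Eight-week-old Sprague-Dawley rats (n=6) dosed by oral gavage with compound or water vehicle between 4 and 5 PM, then housed in metabolic cages with food and water ad libitum. At 16 h, fecal form scored 1 (normal pellet) to 5 (liquid streams) by two observers; group mean reported.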

[3] = test system: phosphorus and calcium levels in the urine of rats; experiment: Urinary excretion of phosphate and calcium in rats (16 h overnight urine); assay type: in vivo, rat; conditions: rats, oral gavage, 16 h post-dose

T1 sequence (P26433 29-831): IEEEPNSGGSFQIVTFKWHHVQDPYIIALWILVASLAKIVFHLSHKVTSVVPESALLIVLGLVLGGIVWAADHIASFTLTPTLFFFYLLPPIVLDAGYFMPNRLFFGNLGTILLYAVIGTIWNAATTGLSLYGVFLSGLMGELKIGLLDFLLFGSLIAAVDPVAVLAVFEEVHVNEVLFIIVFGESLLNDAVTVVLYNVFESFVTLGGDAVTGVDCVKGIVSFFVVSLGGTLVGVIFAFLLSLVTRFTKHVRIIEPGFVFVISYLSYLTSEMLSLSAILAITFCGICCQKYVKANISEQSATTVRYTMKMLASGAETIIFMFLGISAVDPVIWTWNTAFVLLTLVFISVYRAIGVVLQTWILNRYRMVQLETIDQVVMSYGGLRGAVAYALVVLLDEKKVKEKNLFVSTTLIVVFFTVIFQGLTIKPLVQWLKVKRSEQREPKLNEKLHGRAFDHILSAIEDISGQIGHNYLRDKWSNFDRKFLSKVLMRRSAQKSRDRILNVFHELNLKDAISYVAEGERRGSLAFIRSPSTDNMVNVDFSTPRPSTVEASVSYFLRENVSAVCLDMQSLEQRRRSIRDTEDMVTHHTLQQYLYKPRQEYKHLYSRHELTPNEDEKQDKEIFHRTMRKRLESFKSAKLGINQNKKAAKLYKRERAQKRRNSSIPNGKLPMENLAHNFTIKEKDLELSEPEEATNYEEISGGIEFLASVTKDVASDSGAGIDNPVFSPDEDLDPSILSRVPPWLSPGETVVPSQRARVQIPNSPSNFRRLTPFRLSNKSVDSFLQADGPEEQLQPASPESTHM

Row | Compound | Prompt Rat NHE3 pIC50 (Rat NHE3) | Prompt Human NHE3 pIC50 (Human NHE3) | Urine Na % of control ([1]; dose 10 mg/kg) [%] | Fecal Form Score average ([2]; dose 10 mg/kg) | Urine P % of control ([3]; dose 10 mg/kg) [%] | Urine Na % of control ([1]; dose 3 mg/kg) [%] | Fecal Form Score average ([2]; dose 3 mg/kg) | Urine P % of control ([3]; dose 3 mg/kg) [%] | Urine Na % of control ([1]; dose 1 mg/kg) [%] | Fecal Form Score average ([2]; dose 1 mg/kg) | Urine P % of control ([3]; dose 1 mg/kg) [%] | IC50 (Human NHE3; read-out: Prompt Human NHE3 pIC50 (converted)) [µM]
1 | CN1Cc2c(Cl)cc(Cl)cc2[C@H](c2cccc(S(=O)(=O)NCCOCCOCCNC(=O)NCCN(CCNC(=O)NCCOCCOCCNS(=O)(=O)c3cccc([C@@H]4CN(C)Cc5c(Cl)cc(Cl)cc54)c3)C(=O)NCCCCCCCCCCCCNC(=O)N(CCNC(=O)NCCOCCOCCNS(=O)(=O)c3cccc([C@@H]4CN(C)Cc5c(Cl)cc(Cl)cc54)c3)CCNC(=O)NCCOCCOCCNS(=O)(=O)c3cccc([C@@H]4CN(C)Cc5c(Cl)cc(Cl)cc54)c3)c2)C1 [compound 86] | 5.80 | 5.90 | 87 | 1 | 89 |  |  |  |  |  |  | 
2 | O=C(NCCCCNC(=O)NCCOCCOCCNS(=O)(=O)c1ccc(O[C@H]2c3cc(Cl)cc(Cl)c3C[C@@H]2N2CC[C@@H](O)C2)cc1)NCCOCCOCCNS(=O)(=O)c1ccc(O[C@H]2c3cc(Cl)cc(Cl)c3C[C@@H]2N2CC[C@@H](O)C2)cc1 [compound 87] | <5.00 | 8.20 |  |  |  | 54 | 1 | 29 |  |  |  | 
3 | CN1Cc2c(Cl)cc(Cl)cc2[C@H](c2cccc(S(=O)(=O)NCCOCCOCCNC(=O)CCC(N)(CCC(=O)NCCOCCOCCNS(=O)(=O)c3cccc([C@@H]4CN(C)Cc5c(Cl)cc(Cl)cc54)c3)CCC(=O)NCCOCCOCCNS(=O)(=O)c3cccc([C@@H]4CN(C)Cc5c(Cl)cc(Cl)cc54)c3)c2)C1 [compound 88] | 7.07 | 7.93 | 21 | 5 | 69 | 22 | 3 | 75 | 84 | 1 | 77 | 
4 | CCC(=O)NC(CCC(=O)NCCOCCOCCOCCNS(=O)(=O)c1cccc([C@@H]2CN(C)Cc3c(Cl)cc(Cl)cc32)c1)(CCC(=O)NCCOCCOCCOCCNS(=O)(=O)c1cccc([C@@H]2CN(C)Cc3c(Cl)cc(Cl)cc32)c1)CCC(=O)NCCOCCOCCOCCNS(=O)(=O)c1cccc([C@@H]2CN(C)Cc3c(Cl)cc(Cl)cc32)c1 [compound 89] | 7.10 | 7.90 | 49 | 3 | 117 |  |  |  |  |  |  | 
5 | CN1Cc2c(Cl)cc(Cl)cc2[C@H](c2cccc(S(=O)(=O)NCCOCCOCCOCCNC(=O)CCC(N)(CCC(=O)NCCOCCOCCOCCNS(=O)(=O)c3cccc([C@@H]4CN(C)Cc5c(Cl)cc(Cl)cc54)c3)CCC(=O)NCCOCCOCCOCCNS(=O)(=O)c3cccc([C@@H]4CN(C)Cc5c(Cl)cc(Cl)cc54)c3)c2)C1 [compound 90] | 7.20 | 7.85 | 38 | 5 | 20 | 30 | 1 | 58 | 76 | 1 | 65 | 
6 | CN1Cc2c(Cl)cc(Cl)cc2[C@H](c2cccc(S(=O)(=O)NCCOCCOCCOCCNC(=O)CCC(CCC(=O)NCCOCCOCCOCCNS(=O)(=O)c3cccc([C@@H]4CN(C)Cc5c(Cl)cc(Cl)cc54)c3)(CCC(=O)NCCOCCOCCOCCNS(=O)(=O)c3cccc([C@@H]4CN(C)Cc5c(Cl)cc(Cl)cc54)c3)NC(=O)c3ccc(-c4ccc(Cl)cc4)cc3)c2)C1 [compound 91] | 5.30 | <5.00 | 77 | 1 | 56 |  |  |  |  |  |  | 
7 | CCCCCCCCCCC(=O)NC(CCC(=O)NCCOCCOCCNS(=O)(=O)c1cccc([C@@H]2CN(C)Cc3c(Cl)cc(Cl)cc32)c1)(CCC(=O)NCCOCCOCCNS(=O)(=O)c1cccc([C@@H]2CN(C)Cc3c(Cl)cc(Cl)cc32)c1)CCC(=O)NCCOCCOCCNS(=O)(=O)c1cccc([C@@H]2CN(C)Cc3c(Cl)cc(Cl)cc32)c1 [compound 94] | <5.00 | 5.60 | 67 | 1 | 66 |  |  |  |  |  |  | 
8 | CN1Cc2c(Cl)cc(Cl)cc2[C@H](c2cccc(S(=O)(=O)NCCOCCOCCNC(=O)NCCN(CCNC(=O)NCCOCCOCCNS(=O)(=O)c3cccc([C@@H]4CN(C)Cc5c(Cl)cc(Cl)cc54)c3)C(=O)CCOCCOCCOCCOCCOCCOCCOCCOCCOCCC(=O)N(CCNC(=O)NCCOCCOCCNS(=O)(=O)c3cccc([C@@H]4CN(C)Cc5c(Cl)cc(Cl)cc54)c3)CCNC(=O)NCCOCCOCCNS(=O)(=O)c3cccc([C@@H]4CN(C)Cc5c(Cl)cc(Cl)cc54)c3)c2)C1 [compound 95] | 6.60 | 7.00 | 38 | 2 | 111 |  |  |  |  |  |  | 
9 | CN1Cc2c(Cl)cc(Cl)cc2[C@H](c2cccc(S(=O)(=O)NCCOCCOCCNC(=O)CCC(=O)NCCOCCOCCNS(=O)(=O)c3ccc(O[C@H]4c5ccccc5C[C@@H]4N4CCCCC4)cc3)c2)C1 [compound 96] | 7.50 | 8.30 | 33 | 1 | 94 |  |  |  |  |  |  | 
10 | CN1Cc2c(Cl)cc(Cl)cc2[C@H](c2cccc(S(=O)(=O)NCCOCCOCCNC(=O)COCC(=O)NCCOCCOCCNS(=O)(=O)c3ccc(O[C@H]4c5ccccc5C[C@@H]4N4CCCCC4)cc3)c2)C1 [compound 97] | 7.60 | 8.50 | 64 | 1 | 78 |  |  |  |  |  |  | 
11 | O=C(NCCOCCOCCNS(=O)(=O)c1ccc(O[C@H]2c3ccccc3C[C@@H]2N2CCCCC2)cc1)[C@H](O)[C@@H](O)C(=O)NCCOCCOCCNS(=O)(=O)c1ccc(O[C@H]2c3ccccc3C[C@@H]2N2CCCCC2)cc1 [compound 98] | 8.40 | 8.10 | 83 | 1 | 88 |  |  |  |  |  |  | 
12 | O=C(NCCCCNC(=O)NCCOCCOCCNS(=O)(=O)c1ccc(O[C@H]2c3ccccc3C[C@@H]2N2CCCC2)cc1)NCCOCCOCCNS(=O)(=O)c1ccc(O[C@H]2c3ccccc3C[C@@H]2N2CCCC2)cc1 [compound 99] | 8.60 |  | 41 | 1 | 52 |  |  |  |  |  |  | ≥ 10

Source: US20240366589A1, “NHE3-BINDING COMPOUNDS AND METHODS FOR INHIBITING PHOSPHATE TRANSPORT” (Ardelyx, Inc., priority 2013, published 2024)
